Laboratory results as given in patent US11292773B2, “Small molecule inhibitors of BCL-2-associated death promoter (BAD) phosphorylation” (NATIONAL UNIVERSITY OF SINGAPORE, priority 2017, dated 2022).

Experiments:
[1] = tested on: MCF7, BT474, Caov-3, Ishikawa, AsPC-1 and DLD-1 cells; test: NPB exposure with or without siRNA-mediated depletion of BAD (western blot, ApoTox-Glo); type: cell-based, human; settings: 5 μM NPB
Procedure: (A) WB analysis was used to assess the levels of pBAD (Ser99) activity and BAD protein in MCF7, BT474, Caov-3, Ishikawa, AsPC-1, and DLD-1 cells after treatment with 5 μM NPB. Depletion of BAD expression was achieved using transient-transfection of small interfering (si)-RNA directed to the BAD transcript. Soluble whole cell extracts were run on an SDS-PAGE and immunoblotted as described in materials and methods. β-ACTIN was used as input control. Effects of NPB (5 μM) in MCF7, BT474, Caov-3, Ishikawa, AsPC-1, and DLD-1 cells. (B) Cell viability and (C) caspase 3/7 activities were evaluated using the ApoTox-GIo™ Triplex Assay Kit. All assays performed as described in methodology. Statistical significance was assessed by an unpaired two-tailed Student's t-test (P<0.05 was considered as significant) using GraphPad Prism5. The column represents mean of triplicate determinations; bars, ±SD. **P<0.001, *P<0.05. Note RFU, relative fluorescence unit; RLU, relative luminescence unit.
To confirm the functional specificity of NPB directed to the BAD protein, we further examined the effect of NPB exposure after siRNA-mediated depletion of BAD expression in 6 carcinoma cell lines (MCF7, BT474, Caov-3, Ishikawa, AsPC-1 and DLD-1). […] As described above, NPB treatment of the control transfected carcinoma cell lines decreased BAD phosphorylation (Ser99) compared to vehicle-treated cells. Concomitantly, exposure of the same carcinoma cell lines to NPB decreased cell viability and increased caspase 3/7 activity compared to vehicle-exposed cells.

[2] = tested on: AKT; test: Western blot of pAKT (Ser473), AKT, pBAD (Ser99) and BAD in carcinoma cell lines; type: cell-based, human; design: dose or concentration left out as unconfirmed; settings: MCF7, Caov-3, Ishikawa, AsPC-1
Procedure: (A) WB analysis was used to assess the levels of phosphorylated human BAD (at Ser75 and Ser99) and BAD protein in the range of carcinoma cell lines, including mammary, ovarian, pancreatic, endometrial, hepatocellular, colon and prostate cancer after treatment with NPB (5 μM). Total BAD was used as an input control for cell lysate. (B) WB analysis was used to assess the levels of pBAD (Ser99) and pAKT (Ser473), AKT and BAD in MCF7, Caov-3, Ishikawa, and AsPC-1 cells. […] Depletion of AKT expression was achieved using transient-transfection of short hairpin (sh)-RNA (1&2) directed to AKT transcript as described in methodology. β-ACTIN was used as an input control for cell lysate. For WB analysis, soluble whole cell extracts were run on an SDS-PAGE and immunoblotted as described in materials methodology. The sizes of detected protein bands in kDa are shown on the left side. Note: #; non-transformed immortalized-cell line.
The upstream AKT Ser/Thr kinase regulates the phosphorylation of hBAD at Ser99 [13]. We therefore determined whether NPB inhibits the phosphorylation of hBAD (Ser99) via modulation of the activity of AKT (as indicated by phosphorylation of Ser473) using western blot analysis. We observed no change in the levels of pAKT or levels of total AKT protein after exposure of four different carcinoma cells lines (MCF7, Caov-3, Ishikawa, and AsPC-1) to 10 μM NPB. […]

[3] = tested on: various kinases in MCF7 cells; test: Human Phospho-Kinase Antibody Array; type: cell-based; settings: NPB 10 μM, 12 h, vs DMSO
Procedure: (A) Western blot analysis was used to assess the level of BAD Ser99 phosphorylation of pBAD, BAD, pAKT, and AKT in MCF7 cells after an increasing period of treatment with NPB (10 μM). Soluble whole cell extracts were run on an SDS-PAGE and immunoblotted as described in methodology. The sizes of detected protein bands in kDa are shown on the left side. (B) Kinases and phosphorylated substrates were detected using a Western Blot array (Proteome Profiler Human Phospho-Kinase Array Kit. MCF7 cells treated with NPB (10 μM) or DMSO for 12 h at 37° C. before preparation of cell lysate. Mean pixel density was analysed using ImageJ software and is represented below.
To elucidate the possibility that NPB decreased hBAD Ser99 phosphorylation by modulation of kinase activity, we assessed the effects of NPB on various kinases using Human Phospho-Kinase Antibody Array Kit from R&D Systems.

[4] = control transfected carcinoma cell lines, vs vehicle

O=C(NC1CCCC1)c1cccc(C(c2ccccc2O)N2CCN(c3cccc(Cl)c3Cl)CC2)c1 (stereo not shown) [NPB, N-cyclopentyl-3-((4-(2,3-dichlorophenyl)piperazin-1-yl)(2-hydroxyphenyl)methyl) benzamide]
cell viability and caspase3/7 activity ([1]; carcinoma cell lines with depleted expression of BAD): did not affect | BAD phosphorylation (Ser99) [1, 4]: decreased | caspase 3/7 activity [1, 4]: increased | cell viability [1, 4]: decreased | BAD phosphorylation at the Ser99 site [2]: inhibition | levels of pAKT or total AKT protein [2]: no change | kinase activity or phosphorylated substrates [3]: No significant changes
